Structures can show the parent of a compound that is named as a salt. Where two headings read alike, the source gives them in different places.
Legend:
Tolerability in mice = test: Tolerability in mice; design: species or system mice (male albino Swiss); settings: mouse, in vivo, read-out: TOLERABILITY dose
Experimental: Male albino Swiss mice weighing 22-24 g were used in this test.
One group of animals (4/dose) which had been kept fasting for 18 hours was orally administered the compounds dissolved in twice distilled water. The same compounds dissolved in saline at pH=7 were intravenously injected in a further group of animals which had free access to food and drinking water. All of the animals were monitored for 7 days.

[1] = LD50 in mice (Weil's method); settings: mouse, in vivo; intravenous route, male Albino Swiss mice
Experimental: LD50 was assessed according to the Carrol S. WEIL's method (Biometrics, pages […] (1952)) on male Albino Swiss mice weighing 22-24 g. The compounds dissolved in […] saline solution were administered via the intravenous route.

Normotensive cats = test: Measure of arterial pressure in cats (hypotensive effect in normotensive cats); assay type: in vivo; settings: via crural vein; on EFFECT DURATION (hypotension in normotensive cats): key: S: short; A: average; L: long
Experimental: (a) Measure of arterial pressure in cats.
Normotensive cats of either sex weighing 2.5-3.5 kgs were used in this test.
The animals fasted for 18 hours were anesthetized with Na Nembutal (30 mg/kg) and ethyl urethane (300 mg/kg i.p.). The crural vein and artery of the animals were cannulated, the former for administering the compounds, the latter for monitoring the arterial pressure. The arterial pressure was measured via a mercury gauge connected to a rotating kymograph.
The compounds were dissolved in sterile 0.9% saline and administered at physiological pH in a 0.5 ml/kg volume.

SHR hypertensive rats = test: Non-invasive measure of arterial pressure in genetically hypertensive rats (SHR); assay type: in vivo, rats (male SHR)
Experimental: (b) Non-invasive measure of arterial pressure in genetically hypertensive rats.
Male SHR rats (Charles River) of 3-4 months were used in this test. The compounds listed were dissolved in either 0.9% saline or twice distilled water and administered via the oral route or i.p. (50-100 mg/5 ml/kg).
The animals, housed in individual cages at 23° C. and 60% humidity, had free access to food and drinking water. A BP recorder (Letica) equipped with a two-way polygraph was used. The systolic and diastolic pressure and the heart rate were recorded. The animals, a few days before the test began, were accustomed to be constrained on a heating plate (at 38° C.±1° C.) for 20 minutes).
During the pre-tests, the assessments were made at time 0 (8^30 -9^30 a.m.) and after 1, 2 and 4 hours.
Every assessment was the average of 3 measures and the maximum residence time of the animal in the thermostatized chamber (for the whole test duration) was 40 minutes.
Student's "t" test was used for assessing the difference with respect to the control group and its own 0 time.

[2] = iv, e.p. (head), intravenously injected in saline pH 7, monitored 7 days
[3] = os (oral), fasted mice, monitored 7 days

## COc1cc2c(cc1OC)CC(NC(=O)C(N)Cc1c[nH]c3ccccc13)CC2 (stereo not shown) [ST 580, 2-N-tryptophylamino-6,7-dimethoxy tetraline hydrochloride]
Tolerability in mice; [2]
  MTD at 168 h: > 50 mg/kg
Tolerability in mice; [3]
  MTD at 168 h: > 50 mg/kg
[1]
  LD50: 66.7 mg/kg
Normotensive cats; dose 1-4 mg/kg
  HYPOTENSIVE EFFECT IN NORMOTENSIVE CATS, hypotension: 0 mm Hg

## COc1cc2c(cc1OC)CC(NC(=O)C(N)CCSC)CC2 (stereo not shown) [ST 581, 2-N-methionylamino-6,7-dimethoxy tetraline hydrochloride]
Tolerability in mice; [2]
  MTD at 168 h: > 50 mg/kg
Tolerability in mice; [3]
  MTD at 168 h: > 50 mg/kg
[1]
  LD50: 74 mg/kg
Normotensive cats; dose 1-4 mg/kg
  HYPOTENSIVE EFFECT IN NORMOTENSIVE CATS, hypotension: 0 mm Hg

## COc1cc2c(cc1OC)CC(NC(=O)CN)CC2 (stereo not shown) [ST 582, 2-N-glycylamino-6,7-dimethoxy tetraline hydrochloride]
Tolerability in mice; [2]
  MTD at 168 h: > 50 mg/kg
Tolerability in mice; [3]
  MTD at 168 h: > 50 mg/kg
[1]
  LD50: 72.3 mg/kg
Normotensive cats; dose 10 mg/kg
  EFFECT DURATION (hypotension in normotensive cats): S
SHR hypertensive rats; 50 mg/kg i.p., 1st h
  ANTIHYPERTENSIVE EFFECT IN SHR HYPERTENSIVE RATS: -37 mm Hg
SHR hypertensive rats; 50 mg/kg i.p., 2nd h
  ANTIHYPERTENSIVE EFFECT IN SHR HYPERTENSIVE RATS: -27 mm Hg
SHR hypertensive rats; 50 mg/kg i.p., 4th h
  ANTIHYPERTENSIVE EFFECT IN SHR HYPERTENSIVE RATS: 0 mm Hg

## COc1cc2c(cc1OC)CC(NC(=O)[C@H](C)NC(=O)[C@@H](N)CC(C)C)CC2.Cl (stereo partly shown) [ST 584, 2-(N-leucylalanyl)amino-6,7-dimethoxy tetraline hydrochloride]
Tolerability in mice; [2]
  MTD at 168 h: > 50 mg/kg
Tolerability in mice; [3]
  MTD at 168 h: > 50 mg/kg
[1]
  LD50: 167 mg/kg
SHR hypertensive rats; dose "10C" [sic] mg/kg os, 1st h
  ANTIHYPERTENSIVE EFFECT IN SHR HYPERTENSIVE RATS: -12 mm Hg
SHR hypertensive rats; dose "10C" [sic] mg/kg os, 2nd h
  ANTIHYPERTENSIVE EFFECT IN SHR HYPERTENSIVE RATS: 0 mm Hg
SHR hypertensive rats; dose "10C" [sic] mg/kg os, 4th h
  ANTIHYPERTENSIVE EFFECT IN SHR HYPERTENSIVE RATS: 0 mm Hg

## COc1cc2c(cc1OC)CC(NC(=O)[C@H](C)NC(=O)[C@@H](N)Cc1c[nH]c3ccccc13)CC2 (stereo partly shown) [ST 585, 2-(N-tryptophylalanyl)amino-6,7-dimethoxy tetraline hydrochloride]
Tolerability in mice; [2]
  MTD at 168 h: > 50 mg/kg
Tolerability in mice; [3]
  MTD at 168 h: > 50 mg/kg
[1]
  LD50: 115 mg/kg
Normotensive cats; dose 4 mg/kg
  HYPOTENSIVE EFFECT IN NORMOTENSIVE CATS, hypotension: 0 mm Hg
Normotensive cats; dose 10 mg/kg
  EFFECT DURATION (hypotension in normotensive cats): S

## COc1cc2c(cc1OC)CC(NC(=O)[C@H](C)NC(=O)[C@@H](N)CCSC)CC2.Cl (stereo partly shown) [ST 586, 2-(N-methionylalanyl)amino-6,7-dimethoxy tetraline hydrochloride]
Tolerability in mice; [2]
  MTD at 168 h: > 50 mg/kg
Tolerability in mice; [3]
  MTD at 168 h: > 50 mg/kg
[1]
  LD50: 229 mg/kg
Normotensive cats; dose 2 mg/kg
  HYPOTENSIVE EFFECT IN NORMOTENSIVE CATS, hypotension: 0 mm Hg
Normotensive cats; dose 4 mg/kg
  EFFECT DURATION (hypotension in normotensive cats): S

## COc1cc2c(cc1OC)CC(NC(=O)C(N)Cc1ccc(O)cc1)CC2 (stereo not shown) [ST 589, 2-N-tyrosyl-6,7-dimethoxy tetraline hydrochloride]
Tolerability in mice; [2]
  MTD at 168 h: > 50 mg/kg
Tolerability in mice; [3]
  MTD at 168 h: > 50 mg/kg
[1]
  LD50: 218 mg/kg
Normotensive cats; dose 1 mg/kg
  EFFECT DURATION (hypotension in normotensive cats): S
Normotensive cats; dose 2 mg/kg
  EFFECT DURATION (hypotension in normotensive cats): S
SHR hypertensive rats; 100 mg/kg os, 1st h
  ANTIHYPERTENSIVE EFFECT IN SHR HYPERTENSIVE RATS: -26 mm Hg
SHR hypertensive rats; 100 mg/kg os, 2nd h
  ANTIHYPERTENSIVE EFFECT IN SHR HYPERTENSIVE RATS: -20 mm Hg
SHR hypertensive rats; 100 mg/kg os, 4th h
  ANTIHYPERTENSIVE EFFECT IN SHR HYPERTENSIVE RATS: 0 mm Hg

## CCN(C(=O)[C@H](C)NC(=O)[C@@H](N)Cc1c[nH]c2ccccc12)C1CCc2cc(OC)c(OC)cc2C1 (stereo partly shown) [ST 604, 2-(N-ethyl,N-tryptophylalanyl)amino-6,7-dimethoxy tetraline hydrochloride]
Tolerability in mice; [2]
  MTD at 168 h: > 50 mg/kg
Tolerability in mice; [3]
  MTD at 168 h: > 50 mg/kg
[1]
  LD50: 85 mg/kg
Normotensive cats; dose 1-4 mg/kg
  HYPOTENSIVE EFFECT IN NORMOTENSIVE CATS, hypotension: 0 mm Hg

## COc1cc2c(cc1OC)CC(NC(=O)[C@H](C)NC(=O)[C@@H](N)Cc1ccc(O)cc1)CC2.Cl (stereo partly shown) [ST 605, 2-(N-tyrosylalanyl)amino-6,7-dimethoxy tetraline hydrochloride]
Tolerability in mice; [2]
  MTD at 168 h: > 50 mg/kg
Tolerability in mice; [3]
  MTD at 168 h: > 50 mg/kg
[1]
  LD50: 72.3 mg/kg
Normotensive cats; dose 1 mg/kg
  HYPOTENSIVE EFFECT IN NORMOTENSIVE CATS, hypotension: 0 mm Hg
Normotensive cats; dose 2 mg/kg
  EFFECT DURATION (hypotension in normotensive cats): S
SHR hypertensive rats; 100 mg/kg e.p., 1st h
  ANTIHYPERTENSIVE EFFECT IN SHR HYPERTENSIVE RATS: -40 mm Hg
SHR hypertensive rats; 100 mg/kg e.p., 2nd h
  ANTIHYPERTENSIVE EFFECT IN SHR HYPERTENSIVE RATS: -38 mm Hg
SHR hypertensive rats; 100 mg/kg e.p., 4th h
  ANTIHYPERTENSIVE EFFECT IN SHR HYPERTENSIVE RATS: -29 mm Hg
SHR hypertensive rats; 100 mg/kg os, single administration (*), 2nd h
  ANTIHYPERTENSIVE EFFECT IN SHR HYPERTENSIVE RATS: -28 mm Hg
SHR hypertensive rats; 100 mg/kg os, single administration (*), 4th h
  ANTIHYPERTENSIVE EFFECT IN SHR HYPERTENSIVE RATS: -31 mm Hg
SHR hypertensive rats; repeated administration (5 days) (**), dose column "--" below 100 os, 2nd h
  ANTIHYPERTENSIVE EFFECT IN SHR HYPERTENSIVE RATS: -35 mm Hg
SHR hypertensive rats; repeated administration (5 days) (**), dose column "--" below 100 os, 4th h
  ANTIHYPERTENSIVE EFFECT IN SHR HYPERTENSIVE RATS: -17 mm Hg

## CCN(C(=O)[C@H](C)NC(=O)[C@@H](N)CCSC)C1CCc2cc(OC)c(OC)cc2C1 (stereo partly shown) [ST 606, 2-(N-ethyl,N-methionylalanyl)amino-6,7-dimethoxy tetraline hydrochloride]
Tolerability in mice; [2]
  MTD at 168 h: > 50 mg/kg
Tolerability in mice; [3]
  MTD at 168 h: > 50 mg/kg
[1]
  LD50: 150 mg/kg
Normotensive cats; dose 1 mg/kg
  EFFECT DURATION (hypotension in normotensive cats): S
Normotensive cats; dose 2 mg/kg
  EFFECT DURATION (hypotension in normotensive cats): S
Normotensive cats; dose 4 mg/kg
  EFFECT DURATION (hypotension in normotensive cats): S

— patent US5053424A, “2-(N-acyl)amino-6,7-dimethoxy tetralines, and pharmaceutical compositions having antihypertensive activity containing same” (Sigma-Tau Industrie Farmaceutiche Riunite S.p.A., priority 1989, dated 1991)
